# Laboratory results reported in patent US20030216334A1, “Methods for inhibiting/treating hiv infections and aids related symptoms” (priority 2003, published 2003).
# Key:
# [1] = Viral cytopathogenicity, tetrazolium-based colorimetric assay, NL4-3
# Description: (§1) Effect on Drug-Resistant Mutants. […] Viral cytopathogencity was determined by Serquest Inc., a Division of Southern Research Institute, Gaithersburg Md. using the tetrazolium-based calorimetric assay, and the data were analyzed using a program developed by the Southern Research Institute. A number of viruses were used in these studies, which include some that are resistant to both the NNRTIs and NRTIs.
# NL4-3 (wild type) = test: as above; settings: Human immunodeficiency virus 1, NL43
# Description: as §1
# in vitro = test: in vitro
# Description: as §1
# 4XAZT = test: microbe, parasite or virus in culture; settings: Human immunodeficiency virus 1
# Description: as §1
# HIV IIIB (wild type) = test: Viral cytopathogenicity, tetrazolium-based colorimetric assay, IIIB; type: cell-based
# Description: as §1
# DPS-R (Y181C) = test: microbe, parasite or virus in culture; type: cell-based, HIV; settings: Human immunodeficiency virus 1
# Description: as §1
# K103N = test: microbe, parasite or virus in culture; type: cell-based, HIV; settings: Human immunodeficiency virus 1, virus K103N
# Description: as §1
# L100I = test: microbe, parasite or virus in culture; type: cell-based, HIV; settings: Human immunodeficiency virus 1, virus L100I
# Description: as §1
# Y181C = test: microbe, parasite or virus in culture; type: cell-based, HIV; settings: Human immunodeficiency virus 1
# Description: as §1
# [2] = test system: HIV-1 attachment and entry into target cells; test: microbe, parasite or virus in culture
# Description: (§2) 2) Inhibition of HIV-1 attachment and entry into target cells.
# [3] = test system: HeLa CD4 LTR β-gal and HL2/3 cells; test: Cell-to-cell fusion assay in the absence of virus
# Description: as §2
# gp120 binding to CD4 = gp120 binding to CD4 (UniProt P01730+P04578); test: gp120/CD4 binding, cell-associated viral p24 antigen read-out
# Description: as §2
# [4] = Human immunodeficiency virus 1, IIIB
Compound,CC50 [1],IC50 (NL4-3 (wild type)),CC50 (in vitro),IC50 (4XAZT),IC50 (HIV IIIB (wild type); [4]),IC50 (DPS-R (Y181C)),IC50 (K103N),IC50 (L100I),IC50 (Y181C),IC50 (HIV IIIB (wild type); virus IIIB),TC50 ([2]; Attachment),"IC50 ([2]; Human immunodeficiency virus 1, HeLa)",IC50 [3],TC50 ([3]; Fusion),TI (gp120 binding to CD4; gp120/CD4 Binding),"CC50 (gp120 binding to CD4; human, HIV-1 infected HeLa CD4 LTR β-gal cells)"
"Cc1ccnc2c1NC(=O)c1cccnc1N2C1CC1 [Nevirapine, nevirapine]",10000 nM,60 nM,1000 nM,50 nM,30 nM,≥ 10000 nM,3200 nM,150 nM,1030 nM,–,–,–,–,–,–,–
"Cc1cn([C@H]2C[C@H](N=[N+]=[N-])[C@@H](CO)O2)c(=O)[nH]c1=O [AZT, zidovudine]",1000 nM,60 nM,–,≥ 1000 nM,3 nM,20 nM,–,3 nM,10 nM,3.2 nM,–,–,–,–,–,–
"COc1cc(-c2ccc(/N=N/c3ccc4c(S(=O)(=O)O)cc(S(=O)(=O)O)c(N)c4c3O)c(OC)c2)ccc1/N=N/c1ccc2c(S(=O)(=O)O)cc(S(=O)(=O)O)c(N)c2c1O [CSB, Chicago Sky Blue]",–,–,–,–,–,–,–,–,–,–,>10 µg/mL,1.19 µg/mL,0.67 µg/mL,>10 µg/mL,8.3,> 10 µg/mL
